# Experimental data reported in patent US20260125359A1, “HETEROARYL COMPOUNDS AS MULTI-TARGET PROTEIN KINASE INHIBITORS” (FUJIAN HAIXI PHARMACEUTICALS CO., LTD., priority 2023, published 2026).
# Test system: M-NFS-60 cells
# Assay: M-NFS-60 cell in vitro assay (CCK, 48 h, M-CSF factor medium)
# Assay type: cell-based
# Details: M-NFS-60 cells; read-out: M-NFS-60cellassay IC50
# Procedure: To determine the inhibitory activity of compounds on M-NFS-60 cells.
# • M-NFS-60 cell line (ATCC, Cat. No.: CRL-1838) • RPMI-1640 medium (Gibco, domestic subpackage, Cat. No.: C11875500BT) • Recombinant Mouse CSF1/M-CSF (Sino Biological Inc., Cat. No.: 51112-MNAH) • PAN/Serum (BioTECH, Cat. No.: P30-2602) • Trypsin/0.05% Trypsin-EDTA (Gibco, Cat. No.: 25300-062) • 0.4% Trypan Blue (Sigma, Cat. No.: T8154-20 ml) • Penicillin-Streptomycin (Hyclone, Cat. No.: SV30010) • DMSO (Solarbio, Cat. No.: D8371) • PBS (Solarbio, Cat. No.: P1020) • CCK (AbMole BioScience, Cat. No.: M4839-500Tests)
# • 1) M-CSF factor stock solution: take 10 μg of powdered m-CSF factor, add 0.4 ml of saline, formulate 25 ug/ml and store at −80° C. • 2) M-CSF factor (25 ng/ml) medium: • 1640 (Gibco)+10% PAN+100×Penicillin-Streptomycin+100×M-CSF stock solution • 3) Complete medium: • 1640 (Gibco)+10% PAN+100×Penicillin-Streptomycin • 4) Compound preparation: 2-3 mg of the compound was added to DMSO to formulate a 30 mM stock solution, −80° C. refrigerator storage
# • 1) Cell resuscitation: the frozen cells in the cryovial were thawed rapidly by shaking in a 37° C. water bath, then 4 mL of medium was added. After mixing evenly, they were centrifuged at 125×g for 5 min, and the supernatant was discarded. The cells were resuspended and transferred to the culture flasks, and were cultured in a 5% CO2 fully saturated humidity incubator. • 2) Cell passaging: M-NFS-60 cells are semi-suspension cells, which were collected directly in a 15 mL centrifuge tube, centrifuged at 125×g for 5 min. and the supernatant was discarded. The cells were resuspended and passaged into new culture flasks at a ratio of 1:5 to 1:10. • 3) After the newly resuscitated cells were passaged 1-2 times for cell stabilization, compound inhibition assays were started when the cells were in the logarithmic growth phase. • (a) Cell collection and counting: the same as the cell passaging step, centrifuge in two tubes, one tube with M-CSF factor medium to resuspend the cells, the other tube with complete medium to resuspend the cells. Take 10 μL of cell suspension in each tube, and count the cells by Tepan blue staining. • (b) Dilute the cell solution according to the concentration of inoculated cells respectively, the concentration of M-NFS-60 cells inoculated with factor was 5.56×10^4 cells/mL, and the concentration of inoculated without factor was 5×10^4 cells/mL. • (c) Seed plate: 384 well plate inoculated with M-NFS-60 cells, 36 uL/well, triplicate wells, the number of inoculated cells was equivalent to 2000 cells/well, set with blank control, factor free negative control, normal control, DMSO control and experimental wells. The cells were placed in a 5% CO2 fully saturated humidity incubator for 4 h. • (d) Sampling compounds: 96 well plates were used for compound preparation. The compound solution prepared in advance was diluted to corresponding gradient concentration with DMSO. An appropriate amount of the diluted solution in the previous step was added to an equal volume of factor containing medium. The 96 well plates were centrifuged at 1000 rpm for 5 min, which played the role of defoaming and spinning down droplets and condensation. Remove the 384 well plate from the incubator, add the diluted compound solution into each well sequentially, 4 μL/well; DMSO wells and normal wells were added with corresponding factor containing medium, 4 μL/well. Then it was put into CO2 incubator for 48 h. • (e) After incubation for 48 h, CCK was added to each well, 4 uL, and the plates were placed in the incubator for another 2 h, and then the OD (optical density) value at 450 nm was measured by microplate reader.
# The IC50 values for each test compound were fitted using professional graphing and analysis software.
smiles,measurement,value
Cc1cc(NC(=O)c2cccc3c2CC[C@@H]3N(C)c2cnc3cn(C)nc3c2)ccc1F [Compound 80s],IC50,< 50 nM
Cn1cc(-c2cncc(N[C@H]3CCc4c(C(=O)Nc5ccc(Cl)c(F)c5)cccc43)c2)cn1 [Compound 14ao],IC50,< 50 nM
COc1cccc(C(=O)Nc2cccc3c2CC[C@H]3Oc2cc(-c3cnn(C)c3)cnc2N)c1 [Compound 3a],IC50,> 500 nM
Cn1cc(-c2cncc(N[C@H]3CCc4c3ccc(F)c4C(=O)Nc3cccc(C4CC4)c3)c2)cn1 [Compound 51a],IC50,< 50 nM
Cn1cc(-c2cncc(N[C@H]3CCc4c(CNc5cccc(C(F)(F)F)c5)cccc43)c2)cn1 [Compound 59c],IC50,> 500 nM
Cc1cncc(CNc2cccc3c2CC[C@@H]3Nc2cncc(-c3cnn(C)c3)n2)c1 [Compound 60e],IC50,> 500 nM
Cc1cccc(C(=O)Nc2c(F)ccc3c2CC[C@@H]3Nc2cncc(-c3cnn(C)c3)c2)c1 [Compound 46b],IC50,50 to 200 nM
COc1ccc(F)c(NC(=O)c2cccc3c2CC[C@@H]3Oc2cnc3cnn(C)c3c2)c1 [Compound 76ag],IC50,50 to 200 nM
CN1CCc2nc(NC(=O)c3cccc4c3CC[C@@H]4N(C)c3cnc4cn(C)nc4c3)sc2C1 [Compound 80o],IC50,< 50 nM
CN(C)Cc1ccc(NC(=O)c2cccc3c2CC[C@@H]3Oc2cc(-c3cnn(C)c3)cnc2N)cc1 [Compound 5d],IC50,< 50 nM
Cn1cc2ncc(O[C@H]3CCc4c(C(=O)Nc5cccc(C6CC6)c5F)cccc43)cc2n1 [Compound 76bb],IC50,< 50 nM
"Cc1cccc(C(=O)Nc2ccc(F)c3c2CC[C@@H]3Nc2cnc3cn(C)nc3c2)c1F [Compound 83, (S)-2-fluoro-N-(7-fluoro-1-((2-methyl-2H-pyrazolo[4,3-b]pyridin-6-yl)amino)-2,3-dihydro-1H-inden-4-yl)-3-methylbenzamide]",IC50,< 50 nM
O=C(Nc1cccc(C2CC2)c1)c1cccc2c1CC[C@@H]2Nc1cnc2ccnn2c1 [Compound 74g],IC50,< 50 nM
"Cc1cccc(C(=O)Nc2cccc3c2CCC3Nc2cncc(Br)c2)c1 (centres unmarked) [Compound 8d, N-(1-((5-bromopyridin-3-yl)amino)-2,3-dihydro-1H-inden-4-yl)-3-methylbenzamide]",IC50,50 to 200 nM
"Cn1cc(-c2cncc(NC3CCc4c(Nc5cc(C(C)(C)C)on5)cccc43)c2)cn1 (centres unmarked) [Compound 48, N^4-(5-(tert-butyl)isoxazol-3-yl)-N^1-(5-(1-methyl-1H-pyrazol-4-yl)pyridin-3-yl)-2,3-dihydro-1H-indene-1,4-diamine]",IC50,< 50 nM
CC(C)(C)c1nnc(Nc2cccc3c2CC[C@@H]3Nc2cncc(Cl)c2)s1 [Compound 42i],IC50,50 to 200 nM
COc1cccc(C(=O)Nc2cccc3c2OCCC3Oc2cc(Br)cnc2N)c1 (centres unmarked) [Compound 2b],IC50,> 500 nM
COc1cccc(NC(=O)c2cccc3c2CC[C@@H]3N(C)c2cnc3cn(C)nc3c2)c1F [Compound 80m],IC50,< 50 nM
"Cc1cccc(NC(=O)c2cccc3c2CC[C@@H]3Oc2cnc3cnn(C)c3c2)c1F [Compound 75, (S)—N-(2-fluoro-3-methylphenyl)-1-((1-methyl-1H-pyrazolo[4,3-b]pyridin-6-yl)oxy)-2,3-dihydro-1H-indene-4-carboxamide]",IC50,< 50 nM
CN(C)Cc1cccc(NC(=O)c2cccc3c2CC[C@@H]3Nc2cncc(-c3cnn(C)c3)c2)c1 [Compound 14az],IC50,50 to 200 nM
CN(C)CCOc1cccc(NC(=O)c2cccc3c2CC[C@@H]3Oc2cnc3cnn(C)c3c2)c1 [Compound 76ap],IC50,50 to 200 nM
Cn1cc(-c2cncc(N[C@H]3CCc4c(C(=O)Nc5ccc(Cl)cc5)cccc43)c2)cn1 [Compound 14an],IC50,< 50 nM
CN1CCc2c(cccc2NC(=O)c2cccc3c2CC[C@@H]3Oc2cncc(-c3cnn(C)c3)c2)C1 [Compound 19g],IC50,> 500 nM
"Cc1c(Nc2cccc3c2CC[C@@H]3Nc2cncc(Cl)c2)noc1C(C)(C)C [Compound 40d, (S)—N^4-(5-(ter-butyl)-4-methylisoxazol-3-yl)-N^1-(5-chloropyridin-3-yl)-2,3-dihydro-1H-indene-1,4-diamine]",IC50,50 to 200 nM
Cn1cc2ncc(N[C@H]3CCc4c(Nc5cc(C6(C(F)(F)F)CCCC6)on5)cccc43)cc2n1 [Compound 91o],IC50,< 50 nM
Cc1ccc(F)c(NC(=O)c2cccc3c2CC[C@@H]3N(C)c2cnc3cnn(C)c3c2)c1 [Compound 80y],IC50,< 50 nM
Cn1cc(-c2cncc(N[C@H]3CCc4c(Nc5nnc(C(C)(C)C)o5)cccc43)c2)cn1 [Compound 42l],IC50,> 500 nM
Cn1cc(-c2cncc(N[C@H]3CCc4c(NC(=O)c5cccc(C(F)(F)F)c5F)cccc43)n2)cn1 [Compound 25c],IC50,< 50 nM
"Cn1cc(-c2cncc(N[C@H]3CCc4c(NC5(c6ccccc6)COC5)cccc43)c2)cn1 [Compound 63, (S)—N^1-(5-(1-methyl-1H-pyrazol-4-yl)pyridin-3-yl)-N^4-(3-phenyloxetan-3-yl)-2,3-dihydro-1H-indene-1,4-diamine]",IC50,> 500 nM
Cn1cc2ncc(N[C@H]3CCc4c(Nc5noc(C6(C(F)(F)F)CCC6)n5)cccc43)cc2n1 [Compound 93h],IC50,< 50 nM
"Cc1c(Nc2cccc3c2CC[C@@H]3Nc2cncc(-c3cnn(C)c3)c2)noc1C(C)(C)C [Compound 40, (S)—N^4-(5-(tert-butyl)-4-methylisoxazol-3-yl)-N^1-(5-(1-methyl-1H-pyrazol-4-yl)pyridin-3-yl)-2,3-dihydro-18-indene-1,4-diamine]",IC50,< 50 nM
Cn1ncc2ncc(N[C@H]3CCc4c(Nc5cc(C(C)(C)CO)on5)cccc43)cc21 [Compound 91d],IC50,< 50 nM
COc1cc(NC(=O)c2cccc3c2CC[C@@H]3Nc2cncc(-c3cnn(C)c3)c2)ccc1F [Compound 14af],IC50,< 50 nM
Cn1cc2ncc(N[C@H]3CCc4c(Nc5cc(C6(C(F)(F)F)CCC6)on5)cccc43)cc2n1 [Compound 91n],IC50,< 50 nM
Cn1cc(-c2cncc(N[C@H]3CCc4c(C(=O)Nc5cccc(CN6CCCC6)c5)cccc43)c2)cn1 [Compound 14av],IC50,50 to 200 nM
"Cn1cc(-c2cncc(N[C@H]3CCc4c(C(=O)OC5CCCCC5)cccc43)n2)cn1 [Compound 62, cyclohexyl(S)-1-((6-(1-methyl-1H-pyrazol-4-yl)pyrazin-2-yl)amino)-2,3-dihydro-1H-indene-4-carboxylate]",IC50,> 500 nM
Cn1cc(-c2cncc(N[C@H]3CCc4c(CNc5ccccc5F)cccc43)n2)cn1 [Compound 59e],IC50,> 500 nM
CN(C)Cc1cccc(NC(=O)c2cccc3c2CC[C@@H]3N(C)c2cncc(-c3cnn(C)c3)c2)c1 [Compound 22d],IC50,50 to 200 nM
Cn1cc(-c2cncc(N[C@H]3CCc4c(NC(=O)OC5CCCCC5)cccc43)n2)cn1 [Compound 65c],IC50,< 50 nM
CC(C)c1cc(Nc2cccc3c2CC[C@@H]3Nc2cnc3cnn(C)c3c2)no1 [Compound 91e],IC50,< 50 nM
"Cc1cccc(NC(=O)c2cccc3c2CC[C@@H]3N(C)c2cnc3cnn(C)c3c2)c1F [Compound 79, (S)—N-(2-fluoro-3-methylphenyl)-1-(methyl (1-methyl-1H-pyrazolo[4,3-b]pyridin-6-yl)amino)-2,3-dihydro-1H-indene-4-carboxamide]",IC50,< 50 nM
Cn1cc2cc(N[C@H]3CCc4c(C(=O)Nc5cccc(C6CC6)c5)cccc43)ccc2n1 [Compound 74d],IC50,> 500 nM
Cn1nc(Nc2cccc3c2CC[C@@H]3Nc2cncc(Cl)c2)cc1C(F)(F)F [Compound 42d],IC50,> 500 nM
CN1CCN(Cc2ccc(C(=O)Nc3cccc4c3CC[C@@H]4Nc3cncc(-c4cnn(C)c4)n3)cc2)CC1 [Compound 25f],IC50,50 to 200 nM
